Data as given in paper PMC4494750 (Journal of medicinal chemistry, 2011).
Where a name gives a salt, the structure may show the parent alone.

Assays:
[1] = tested on: P. falciparum pansensitive D6; experiment: In vitro antimalarial activity: P. falciparum growth inhibition; format: cell-based; conditions: Plasmodium falciparum, D6, 72 h, read-out: IC50 (nM) D6
[2] = tested on: P. berghei; conditions: subcutaneous injection, mice; without cure or at doses resulting in more toxic deaths than cures; ref 7a, 7e, 7b, 16; cited from earlier work
[3] = tested on: P. cynomolgi; conditions: oral treatment, even at toxic doses; ref 7c; cited from earlier work
[4] = tested on: P. yoelii-Kenya; experiment: In vivo antimalarial efficacy: P. yoelii murine patent infection; parameters: species or system P. yoelii in CF-1 mice; conditions: for weight loss or toxicity: 5 mg/kg/day by gavage
[5] = 25 mg/kg/day by gavage, parasite-free for 28 days

Molecule | effect on survival [2] | weight loss or toxicity [4] | further results
CCN(CC)CCCC(C)Nc1ccnc2cc(Cl)ccc12 (stereo not shown) [CQ, chloroquine] |  |  | IC50 [1]: 11 nM
CCCCCC1=C/C(=C/c2[nH]c(-c3ccc[nH]3)cc2OC)N=C1C [Compound 1, prodigiosin] | extend survival |  | antimalarial activity [3]: completely ineffective
CCCCCCCCCCCC1=N/C(=C\c2[nH]c(-c3ccc[nH]3)cc2OC)C=C1 [Compound 2, undecylprodiginine] | extend survival |  | 
CCC1CCCCCCCCC2=N/C(=C\c3[nH]c(-c4ccc[nH]4)cc3OC)C1=C2 (stereo not shown) [Compound 3, metacycloprodiginine] | extend survival |  | parasite clearance ([4]; 100 mg/kg/day by gavage): complete; weight loss ([4]; 100 mg/kg/day by gavage): temporary weight loss; mice cured ([4]; 100 mg/kg/day by gavage, parasite-free for 28 days): three of four; parasitemia ([4]; initial proof-of-principle testing, 25 mg/kg/day by gavage, 54.1% in controls): 0.28%
COC1=CC(c2ccc[nH]2)=N/C1=C\c1[nH]ccc1Cc1ccc(Cl)cc1 [Compound 41] |  | without any evidence of weight loss or toxicity | 
CCCCCCCCc1cc(CCC)c(/C=C2\N=C(c3ccc[nH]3)C=C2OC)[nH]1 [Compound 48, 4′-methoxy-5′-(5-octyl-3-propyl-1H-pyrrol-2-ylmethylene)-1H,5′H-[2,2′]bipyrrolyl, hydrochloride] |  | without any evidence of weight loss or toxicity | 
CCCc1cc(CCC2CCCCC2)c(/C=C2\N=C(c3ccc[nH]3)C=C2OC)[nH]1 [Compound 49] |  | without any evidence of weight loss or toxicity | 
CCCc1cc(Cc2ccc(Cl)cc2)c(/C=C2\N=C(c3ccc[nH]3)C=C2OC)[nH]1 [Compound 57] |  | without any evidence of weight loss or toxicity | 
CCCCCCc1cc(Cc2ccc(Cl)cc2)c(/C=C2\N=C(c3ccc[nH]3)C=C2OC)[nH]1 [Compound 58] |  | without any evidence of weight loss or toxicity | cures in treated group [4, 5]: one cure
CCCCCCCCc1cc(Cc2ccc(Cl)cc2)c(/C=C2\N=C(c3ccc[nH]3)C=C2OC)[nH]1 [Compound 60] |  | without any evidence of weight loss or toxicity | cures in treated group [4, 5]: one cure
COC1=CC(c2ccc[nH]2)=N/C1=C\c1[nH]c(Cc2ccc(Cl)cc2)cc1Cc1ccc(Cl)cc1 [Compound 66] |  | without any evidence of weight loss or toxicity | weight loss or clinical overt toxicity ([4]; 25 mg/kg/day by gavage): without any evident weight loss or clinical overt toxicity
CCCCCCCc1cc(/C=C2\N=C(c3ccc[nH]3)C=C2OC)[nH]c1C [Compound 76, heptylprodigiosin] | extend survival |  | 
CCCC[C@H]1CCCCCCc2[nH]c(/C=C3\N=CC(c4ccc[nH]4)=C3OC)cc21 [Compound 77, butylcycloheptylprodiginine] | extend survival |  | 
cyclononylprodiginine [Compound 78] | extend survival |  | 
